Patent publication US12268739B2, “Use of toll-like receptor 2 (TLR-2) agonist for modulating human immune response” (Children's Medical Center Corporation, priority 2018, dated 2025)

Key:
[1] = test system: NF-κB reporter THP1 cells; test: NF-kB-induced luminescence HTS in THP1-Lucia cells (384-well); format: cell-based, human; conditions: ranked at 3.3 μM; ~200,000 compounds tested
Text: HTS Overview: To identify immunomodulators/adjuvants that robustly activate human immune cells, ˜200,000 small molecules were screening in a THP1 cell-based assay. The chemical libraries screened included known bioactive and commercial libraries from various sources including commercial libraries such as ChemDiv, ChemBridge, and Asinex. All libraries were owned and provided by the Institute of Chemistry and Cell Biology (ICCB)—Longwood (Harvard Medical School). The project primary screen incorporated two distinct arms: a) a luciferase-based screen which corresponds to the relative activation of the NF-κB reporter; and b) a fluorescence-based screen, corresponding to the phenotypic adherence, a distinct marker of cell activation, of the human monocytic THP-1 cell lines. Described herein are small molecules identified in the screen that induce NF-kB activity based on a luciferase-based THP-1 cell screen.
(§1) THP-1 Cell Line and Culture Conditions. The THP1-Lucia™ cell line was obtained from Invivogen (San Diego, CA). THP1-Lucia cells, which are human monocytic cells derived from the blood of a child with leukemia, contain an NF-kB-inducible Luc reporter construct. This allows NF-kB activation to be measured by quantifying the luminescence from the secreted luciferase enzyme. THP1-Lucia cells were cultured in RPMI 1640 supplemented with 10% non-heat inactivated fetal bovine serum (FBS), 10 mM HEPES, 1.0 mM sodium pyruvate, 50 ug/ml Pen-Strep, and 100 ug/mL Normocin™. Once cultured, the cells were stored in a 37° C. incubator with 5% CO2 and a humidified atmosphere. Cells were passaged every 2-3 days and not allowed to exceed a concentration of 2.0×10^6 cells/ml media.
NF-kB-induced Luminescence Assay. THP1-Lucia cells between passage 15 and 18 and suspended in culture medium were dispensed into 384-well black clear-bottom plates (Corning 3712) at 30,000 cells/30 μl/well using a Combi liquid dispenser. To allow comparison to a benchmark small molecule with known immune stimulating activity, cells at the same concentration were stimulated with 50 μM R848, a TLR7/8 agonist, in 0.3% DMSO and added to every other well of column 24, which was left empty of cells, by multichannel pipette at the same volume. Five μl of 700 nM Phorbol myristate acetate (PMA) in THP1 culture media and 2.3% DMSO, a known peripheral blood cell mitogen, was added to every other well of column 23 by multichannel pipette (final concentration in well: 100 nM in 0.3% DMSO). Five μl of THP1 culture media with 2.3% DMSO was added to the remaining wells of column 23 by multichannel pipette (final concentration 0.3% DMSO). One hundred nl aliquots of library compounds diluted in 100% DMSO were transferred from their original 384-well plates to the assay plates using a Seiko pin transfer machine. Each library plate was pinned in duplicate, yielding two assay plates with identical conditions for comparison. Plates were then incubated for 24 hours at 37 C with 5% CO2 in humid conditions. Following incubation, 10 μL of supernatant was removed from each well and transferred to a white plate (Corning 3570) using a Vprep liquid transfer machine. 10 μL of recombinant Lucia protein (Invivogen) diluted 1:2000 in THP1 culture media was added to empty well 24P. Using a Combi liquid dispenser, 50 μL/well of Quanti-Luc substrate (Invivogen) diluted 1:3 in sterile water was added to the assay plate. Immediately after adding the substrate, the luminescence was read using a PerkinElmer Envision plate reader.

THP1-NF-κB cells = test: THP1-NF-κB cell stimulation for 24 hours, secreted luciferase luminescence; format: cell-based, human; conditions: NF-κB-dependent luminescence, 24 hours; for THP1 cells (relative luminescence units, N = 4) Comp at 25 uM: compound at 25 uM; for THP1 cells (relative luminescence units, N = 4) Comp at 100 uM: compound at 100 uM
Protocol: as §1
(§2) PBMCs were isolated from blood using a Ficoll density gradient. PBMCs either used fresh or were stored at 5×10^7 cells per vial in 1 mL RPMI containing 20% autologous plasma and 10% DMSO at −80° C. until use. Stimulation plates were prepared by transferring 0.66 μl of DMSO-dissolved compounds (30 or 7.5 mM) to each well of a round bottom 96-well plate. PBMCs isolated from human adult donors or THP1-NF-κB cells were resuspended at a concentration of 10^5 cells/200 μl of RPMI supplemented with 10% of platelet-poor plasma or THP1 culture medium, respectively. 200 μl of the cell suspension were transferred to each well resulting in a final compound concentration of 100 or 25 μM. After 24 hours of incubation (37° C., 5% CO2), plates were spun down (500×g, room temperature, 5 minutes) and supernatants were harvested for further analysis.

human adult PBMCs = test: Cytokine production by stimulated human adult PBMCs (ELISA / multiplex); format: cell-based; conditions: human adult PBMCs, 24 hours, compounds at 100 µM (FIG. 7), ELISA, median
Protocol: ELISAs and Multiplex-Analyte Assays. Supernatants derived from human PBMCs stimulations were assayed by ELISA for TNF and IL-6 (ThermoFisher Scientific; Waltham, MA, USA). Cytokine and chemokine expression profiles (e.g., IFNγ, IL-9, IL-10, IL-12 (p70), IL-13, IL-1β, IL-23, IL-27, IL-28A, IL-33, IL-6, MIP-3α/CCL20, and TNF) in cell culture supernatants were measured using a customized Milliplex® Human Th17 Magnetic Bead Panel according to the manufacturer's instructions (Millipore, Chicago, IL, USA). Assays were read and analyzed on the Luminex® 100/200TM System and xPOTENT® software (Luminex, Austin, TX). A minimum threshold was set at the minimum detectable concentration for each individual assay, defined as three standard deviations above the mean background.
as §2, with “Stimulation plates were prepared by transferring 0.66 μl of DMSO-dissolved compounds (30 or 7.5 mM) to each well of a round bottom 96-well plate.” left out, “200 μl of the cell suspension were transferred to each well resulting in a final compound concentration of 100 or 25 μM.” left out

SMILES	Efficacy in activating NF-κB in THP1 cells (screening hits) [1]	THP1 cells (relative luminescence units, N = 4) Comp at 25 uM (THP1-NF-κB cells)	THP1 cells (relative luminescence units, N = 4) Comp at 100 uM (THP1-NF-κB cells)	Adult PBMCs (median ng/ml) IL-6 (N = 7) (human adult PBMCs)	Adult PBMCs (median ng/ml) TNFa (N = 13) (human adult PBMCs)
COC(=O)c1c(NC(=O)CN2CCN(C(=O)c3ccco3)CC2)sc2c1CCC2 [Compound 003]	most effective				
CCOC(=O)c1c(NC(=O)CN2CCC3(CC2)OCCO3)sc(C)c1C [Compound 005]	most effective				
CNC(=O)c1c(NC(=O)c2ccc(Cl)cc2)sc2c1CCC2 [Compound 80.5]		436.5 relative luminescence units	777 relative luminescence units	0.008 ng/mL	0.008 ng/mL
CCN(CC)S(=O)(=O)c1ccc(C(=O)Nc2sc3c(c2C(=O)NC)CCC3)cc1 [Compound 80.6]		2505 relative luminescence units	2816 relative luminescence units		
CNC(=O)c1c(NC(=O)c2ccc(OC)cc2)sc2c1CCC2 [Compound 80.8]		258.5 relative luminescence units	2552 relative luminescence units	0.008 ng/mL	0.008 ng/mL
CNC(=O)c1c(NC(=O)c2ccc(C#N)cc2)sc2c1CCC2 [Compound 80.11]		1108 relative luminescence units	2420 relative luminescence units	0.0225 ng/mL	0.008 ng/mL
CNC(=O)c1c(NC(=O)c2ccc(S(=O)(=O)N(C)C)cc2)sc2c1CCCCC2 [Compound 80.13]		348 relative luminescence units	11361 relative luminescence units	0.008 ng/mL	0.008 ng/mL
CNC(=O)c1c(NC(=O)c2ccc(S(=O)(=O)N3CCCCC3)cc2)sc(C)c1C [Compound 80.14]		517 relative luminescence units	1475 relative luminescence units	0.008 ng/mL	0.008 ng/mL
CNc1ccc([N+](=O)[O-])cc1-n1cnc(-c2ccc([N+](=O)[O-])cc2)c1 [TM-A, reference compound]		8777 relative luminescence units	13092 relative luminescence units	2.154 ng/mL	0.092 ng/mL
COC(=O)c1c(NC(=O)Nc2ccccc2)sc2c1CCCC2 [TM-B, reference compound]		1204 relative luminescence units	681 relative luminescence units	0.057 ng/mL	0.008 ng/mL
CCOC(=O)c1c(NC(=S)Nc2ccc(OC)cc2)sc2c1CCCC2 [TM-C, reference compound]		3440 relative luminescence units	4031 relative luminescence units	0.5145 ng/mL	0.01575 ng/mL
Cc1ccc(N(CC(=O)NCc2ccc(Cl)cc2)S(C)(=O)=O)cc1 [TM-E, reference compound]		320 relative luminescence units	428.5 relative luminescence units	0.008 ng/mL	0.008 ng/mL
COc1ccc(CNC(=O)CN(c2ccc(Br)cc2)S(=O)(=O)c2ccccc2)cc1 [TM-F, reference compound]		348.5 relative luminescence units	2012 relative luminescence units	0.008 ng/mL	0.008 ng/mL
